Results published in US4348404A, “Antiinflammatory 4,5-diaryl-α-polyfluoroalkyl-1H-imidazole-2-methanamines” (E. I. Du Pont de Nemours and Company, priority 1981, dated 1982).
Read-outs that look alike come from different tables or passages of the source.

System: adjuvant-induced arthritis in rats
Experiment: Established Adjuvant-Induced Arthritis in Rats
Type: in vivo, Lewis (Wistar) male rats
Settings: for ED50: read-out: Adjuvant Arthritis ED50; for percent paw volume reduction at the indicated dose: oral gavage once daily for 7 days
[1] = rat, oral gavage once daily for 7 days (days 14-20), decrease from control paw volume, uninjected left hind paw, day 21, estimated from dose-response regression lines by inspection

`COc1ccc(-c2nc(C(N)(C(F)(F)F)C(F)(F)F)[nH]c2-c2ccc(OC)cc2)cc1` [Example 1, 4,5-Bis(4-methoxyphenyl)-α,α-di(trifluoromethyl)-1H-imidazole-2-methanamine] showed an ED50 [1] of 2 mg/kg.

For `NC(c1nc(-c2ccc(F)cc2)c(-c2ccc(F)cc2)[nH]1)C(F)(F)F` (stereo not drawn) [Example 2, 4,5-Bis(4-fluorophenyl)-α-trifluoromethyl-1H-imidazole-2-methanamine], the ED50 [1] was 19 mg/kg.

In the case of `CNC(c1nc(-c2ccc(F)cc2)c(-c2ccc(F)cc2)n1C)(C(F)(F)F)C(F)(F)F` [Example 3, 4,5-Bis-(4-fluorophenyl)-N,1-dimethyl-α,α-di(trifluoromethyl)-1H-imidazole-2-methanamine], the “percent paw volume reduction at the indicated dose” value (rat, @ 25 mg/kg) is reported as -41%.

With `NC(c1nc(-c2ccc(F)cc2)c(-c2ccc(F)cc2)[nH]1)(C(F)(F)F)C(F)(F)F` [Example 4, 4,5-bis(4-fluorophenyl)-α,α-di(trifluoromethyl)-1H-imidazole-2-methanamine] the ED50 [1] was 1.7 mg/kg.

With `COc1ccc(-c2nc(C(N)(C(F)(F)F)C(F)(F)F)n(C)c2-c2ccc(OC)cc2)cc1` [Example 5] the “percent paw volume reduction at the indicated dose” value (rat, @ 50 mg/kg) was -27%.

Work on `Cn1c(C(N)(C(F)(F)F)C(F)(F)F)nc(-c2ccc(F)cc2)c1-c1ccc(F)cc1` [Example 6, 4,5-bis(4-fluorophenyl)-1-methyl-α,α-di(trifluoromethyl)-1H-imidazole-2-methanamine] yielded an ED50 [1] of 3.4 mg/kg.

`Cc1ccc(-c2nc(C(N)(C(F)(F)F)C(F)(F)F)[nH]c2-c2ccc(C)cc2)cc1` [Example 7] gave an ED50 [1] of 5.4 mg/kg.

`NC(c1nc(-c2ccc(Cl)cc2)c(-c2ccc(Cl)cc2)[nH]1)(C(F)(F)F)C(F)(F)F` [Example 8] gave an ED50 (Rattus norvegicus, po) of 7 mg/kg.

`NC(c1nc(-c2ccccc2)c(-c2ccccc2)[nH]1)(C(F)(F)F)C(F)(F)F` [Example 9] showed an ED50 [1] of 8 mg/kg.
